# Data from US7420001B2 (Wyeth, priority 2003, dated 2008).
# Like-named read-outs stand apart in the source and are kept apart here.
# Tests used:
# [1] = target: T1, MMP-2 (Homo sapiens, UniProt P08253); experiment: In-vitro fluorescence assay of MMP-2 activity; format: biochemical; conditions: recombinant human MMP-2; read-out: MMP-2 IC50
# T1 construct: purchased Oncogene Research Products (Calbiochem) PF023
# T1 sequence (P08253 110-660): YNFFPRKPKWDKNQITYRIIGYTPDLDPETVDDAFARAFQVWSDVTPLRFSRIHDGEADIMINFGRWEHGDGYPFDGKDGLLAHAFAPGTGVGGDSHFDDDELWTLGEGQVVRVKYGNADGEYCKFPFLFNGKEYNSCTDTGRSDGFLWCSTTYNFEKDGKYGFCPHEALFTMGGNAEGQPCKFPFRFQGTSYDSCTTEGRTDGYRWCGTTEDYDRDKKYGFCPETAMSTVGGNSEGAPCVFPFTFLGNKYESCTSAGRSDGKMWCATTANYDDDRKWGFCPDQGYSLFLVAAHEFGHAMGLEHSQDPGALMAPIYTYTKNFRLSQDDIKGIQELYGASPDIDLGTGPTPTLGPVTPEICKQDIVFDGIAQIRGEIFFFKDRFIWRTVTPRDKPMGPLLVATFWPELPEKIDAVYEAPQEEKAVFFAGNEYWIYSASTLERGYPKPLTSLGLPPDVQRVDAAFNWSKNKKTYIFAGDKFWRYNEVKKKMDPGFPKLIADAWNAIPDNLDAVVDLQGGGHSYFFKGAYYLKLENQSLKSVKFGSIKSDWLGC
# [2] = target: T2, MMP-13 (Homo sapiens, UniProt P45452); experiment: In-vitro fluorescence assay of MMP-13 activity; format: biochemical
# T2 construct: made in house
# [3] = recombinant human catalytic domain of MMP-13, read-out: MMP-13 IC50
SMILES,IC50 [1],"IC50 ([2]; MMP-13 IC50, recombinant human catalytic domain of MMP-13)","IC50 [2, 3]"
"CC(C)C(NS(=O)(=O)c1ccc(-c2ccc(NC(=O)c3cc4cc(NS(C)(=O)=O)ccc4o3)cc2)cc1)C(=O)O (stereo in doubt) [Example 8, N-({4′-[({5-[(methylsulfonyl)amino]-1-benzofuran-2-yl}carbonyl)amino]-1,1′-biphenyl-4-yl}sulfonyl)-L-valine]",3.9 nM,0.4 nM,
"CC(=O)Nc1ccc2oc(C(=O)Nc3ccc(-c4ccc(S(=O)(=O)NC(C(=O)O)C(C)C)cc4)cc3)cc2c1 (stereo in doubt) [Example 9, N-{[4′-({[5-(acetylamino)-1-benzofuran-2-yl]carbonyl}amino)-1,1′-biphenyl-4-yl]sulfonyl}-L-valine]",4 nM,,1.3 nM
"COc1c(Br)ccc2oc(C(=O)Nc3ccc(-c4ccc(S(=O)(=O)NC(C(=O)O)C(C)C)cc4)cc3)c(C)c12 (stereo in doubt) [Example 119, (R)-2-{4′-[(5-Bromo-4-methoxy-3-methyl-benzofuran-2-carbonyl)-amino]-biphenyl-4-sulfonylamino}-3-methyl-butyric acid]",688 nM,,3.4 nM
CC(C)[C@H](NS(=O)(=O)c1ccc(-c2ccc(NC(=O)c3cc4cc(Cl)ccc4o3)cc2)cc1)C(=O)O [Example 4],4.1 nM,,0.3 nM
"COc1cccc2cc(C(=O)Nc3ccc(-c4ccc(S(=O)(=O)N[C@H](C(=O)O)C(C)C)cc4)cc3)oc12 [Example 5, N-[(4′-{[(7-methoxy-1-benzofuran-2-yl)carbonyl]amino}-1,1′-biphenyl-4-yl)sulfonyl]-L-valine]",,,10.4 nM
"CC(C)[C@H](NS(=O)(=O)c1ccc(-c2ccc(NC(=O)c3cc4cc([N+](=O)[O-])ccc4o3)cc2)cc1)C(=O)O [Example 6, N-[(4′-{[(5-nitro-1-benzofuran-2-yl)carbonyl]amino}-1,1′-biphenyl-4-yl)sulfonyl]-L-valine]",3.3 nM,,0.7 nM
"CC(C)[C@H](NS(=O)(=O)c1ccc(-c2ccc(NC(=O)c3cc4cc(N)ccc4o3)cc2)cc1)C(=O)O [Example 7, N-[(4′-{[(5-amino-1-benzofuran-2-yl)carbonyl]amino}-1,1′-biphenyl-4-yl)sulfonyl]-L-valine]",,,1.5 nM
"CC(C)[C@H](NS(=O)(=O)c1ccc(-c2ccc(NC(=O)c3cc4cc(NS(=O)(=O)c5ccccc5)ccc4o3)cc2)cc1)C(=O)O [Example 10, 4′-[(5-Benzenesulfonylamino-benzofuran-2-carbonyl)-amino]-biphenyl-4-sulfonyl-L-valine]",19 nM,,3.4 nM
"COc1cccc2oc(C(=O)Nc3ccc(-c4ccc(S(=O)(=O)N[C@H](C(=O)O)C(C)C)cc4)cc3)cc12 [Example 11, N-[(4′-{[(4-methoxy-1-benzofuran-2-yl)carbonyl]amino}-1,1′-biphenyl-4-yl)sulfonyl]-L-valine]",16 nM,,2.3 nM
"CC(C)[C@H](NS(=O)(=O)c1ccc(-c2ccc(NC(=O)c3cc4ccccc4s3)cc2)cc1)C(=O)O [Example 12, 4′-[(Benzo[β]thiophene-2-carbonyl)-amino]-biphenyl-4-sulfonyl-L-valine]",149 nM,,6.2 nM
"CC(C)[C@H](NS(=O)(=O)c1ccc(-c2ccc(NC(=O)c3cc4c(OCc5ccccc5)cccc4o3)cc2)cc1)C(=O)O [Example 13, 4′-[(4-Benzyloxy-benzofuran-2-carbonyl)-amino]-biphenyl-4-sulfonyl-L-valine]",62 nM,,
"CC(Oc1cccc2oc(C(=O)Nc3ccc(-c4ccc(S(=O)(=O)N[C@H](C(=O)O)C(C)C)cc4)cc3)cc12)C(=O)O (stereo partly drawn) [Example 14, 4′-{[4-(1-Carboxy-ethoxy)-benzofuran-2-carbonyl]-amino}-biphenyl-4-sulfonyl-L-valine]",916 nM,,11 nM
"NC(=O)C[C@H](NS(=O)(=O)c1ccc(-c2ccc(NC(=O)c3cc4ccccc4o3)cc2)cc1)C(=O)O [Example 15, N2-({4′-[(1-Benzofuran-2-ylcarbonyl)animo]-1,1′-biphenyl-4-yl}sulfonyl)-L-Asparagine]",10 nM,,2.5 nM
"O=C(Nc1ccc(-c2ccc(S(=O)(=O)N[C@@H](Cc3cnc[nH]3)C(=O)O)cc2)cc1)c1cc2ccccc2o1 [Example 17, N-({4′-[(1-Benzofuran-2-ylcarbonyl)amino]-1,1′-biphenyl-4-yl}sulfonyl)-L-Histidine]",37 nM,,
"CC(C)C[C@H](NS(=O)(=O)c1ccc(-c2ccc(NC(=O)c3cc4ccccc4o3)cc2)cc1)C(=O)O [Example 18, N-({4′-[(1-Benzofuran-2-ylcarbonyl)amino]-1,1′-biphenyl-4-yl}sulfonyl)-L-leucine]",8.4 nM,,2.2 nM
"Cc1c(C(=O)Nc2ccc(-c3ccc(S(=O)(=O)N[C@H](C(=O)O)C(C)C)cc3)cc2)oc2cccc(C#CC3CC3)c12 [Example 23, 2-{4′-[(4-Cyclopropylethynyl-3-methyl-benzofuran-2-carbonyl)-amino]-biphenyl-4-sulfonylamino}-3-methyl-butyric acid]",3000 nM,,21 nM
"Cc1cc(-c2cccc3oc(C(=O)Nc4ccc(-c5ccc(S(=O)(=O)N[C@H](C(=O)O)C(C)C)cc5)cc4)c(C)c23)on1 [Example 35, L-3-Methyl-2-(4′-{[3-methyl-4-(3-methyl-isoxazol-5-yl)-benzofuran-2-carbonyl]-amino}-biphenyl-4-sulfonylamino)-butyric acid]",,,9.9 nM
"COc1cc(OC)c2c(C)c(C(=O)Nc3ccc(-c4ccc(S(=O)(=O)N[C@H](C(=O)O)C(C)C)cc4)cc3)oc2c1C [Example 44, L-2-{4′-[(4,6-Dimethoxy-3,7-dimethyl-benzofuran-2-carbonyl)-amino]-biphenyl-4-sulfonylamino}-3-methyl-butyric acid]",,,286 nM
"CC(C)[C@H](NS(=O)(=O)c1ccc(-c2ccc(NC(=O)c3oc4ccccc4c3-c3ccccc3)cc2)cc1)C(=O)O [Example 54, L-3-Methyl-2-{4′-[(3-phenyl-benzofuran-2-carbonyl)-amino]-biphenyl-4-sulfonylamino}-butyric acid]",,,220 nM
"Cc1nc(-c2ccc(C(F)(F)F)cc2)sc1C(=O)Nc1ccc(-c2ccc(S(=O)(=O)N[C@H](C(=O)O)C(C)C)cc2)cc1 [Example 66, (S)-3-Methyl-2-(4′-{[4-methyl-2-(4-trifluoromethyl-phenyl)-thiazole-5-carbonyl]-amino}-biphenyl-4-sulfonylamino)-butyric acid]",,,121 nM
"CC(C)[C@H](NS(=O)(=O)c1ccc(-c2ccc(NC(=O)c3cc4ccccc4o3)cn2)cc1)C(=O)O [Example 76, 4-{5-[(Benzofuran-2-carbonyl)-amino]-pyridin-2-yl}-benzenesulfonyl-L-valine]",,,3.1 nM
"CC(C)[C@@H](C(=O)O)N(C)S(=O)(=O)c1ccc(-c2ccc(NC(=O)c3cc4ccccc4o3)cc2)cc1 [Example 78, N-({4′-[(1-Benzofuran-2-ylcarbonyl)amino]-1,1′-biphenyl-4-yl}sulfonyl)-N-methyl-L-valine]",,,5600 nM
"CC(C)[C@@H](C(=O)O)N(Cc1cccnc1)S(=O)(=O)c1ccc(-c2ccc(NC(=O)c3cc4ccccc4o3)cc2)cc1 [Example 81, N-({4′-[(1-Benzofuran-2-ylcarbonyl)amino]-1,1′-biphenyl-4-yl}sulfonyl)-N-(pyridin-3-ylmethyl)-L-valine]",,,323 nM
"CC(C)[C@H](NS(=O)(=O)c1ccc(-c2ccc(NC(=O)c3oc4cccc5c4c3CN(C)CC5)cc2)cc1)C(=O)O [Example 85, N-[(4′-{[(4-Methyl-3,4,5,6-tetrahydrofuro[4,3,2-ef][3]benzazepin-2-yl)carbonyl]amino}-1,1′-biphenyl-4-yl)sulfonyl]-L-valine]",,,294 nM
"COc1c(C(C)=O)ccc2oc(C(=O)Nc3ccc(-c4ccc(S(=O)(=O)N[C@H](C(=O)O)C(C)C)cc4)cc3)c(C)c12 [Example 121, (S)-2-{4′-[(5-Acetyl-4-methoxy-3-methyl-benzofuran-2-carbonyl)-amino]-biphenyl-4-sulfonylamino}-3-methyl-butyric acid]",,,1020 nM
"C=C(Cl)c1ccc2oc(C(=O)Nc3ccc(-c4ccc(S(=O)(=O)N[C@H](C(=O)O)C(C)C)cc4)cc3)c(C)c2c1OC [Example 122, (S)-2-(4′-{[5-(1-Chloro-vinyl)-4-methoxy-3-methyl-benzofuran-2-carbonyl]-amino}-biphenyl-4-sulfonylamino)-3-methyl-butyric acid]",,,222 nM
"COCCCc1cccc2oc(COc3ccc(-c4ccc(S(=O)(=O)N[C@H](C(=O)O)C(C)C)cc4)cc3)c(C)c12 [Example 147, N-[(4′-{[4-(3-methoxypropyl)-3-methyl-1-benzofuran-2-yl]methoxy}-1,1′-biphenyl-4-yl)sulfonyl]-L-valine]",,,1.9 nM
"CC(C)[C@H](NS(=O)(=O)c1ccc(-c2ccc(NC(=O)c3csnn3)cc2)cc1)C(=O)O [Example 163, N-({4′-[(1,2,3-thiadiazol-4-ylcarbonyl)amino]-1,1′-biphenyl-4-yl}sulfonyl)-L-valine]",2 nM,,
"CC(C)[C@H](NS(=O)(=O)c1ccc(-c2ccc(NS(=O)(=O)c3cccs3)cc2)cc1)C(=O)O [Example 170, (S)-3-Methyl-2-[4′-(thiophene-2-sulfonylamino)-biphenyl-4-sulfonylamino]-butyric acid]",,,2870 nM
